Measurements as given in patent publication US9809623B2, “α4β7 peptide monomer and dimer antagonists” (Protagonist Therapeutics, Inc., priority 2014, dated 2017).
Numbered stars: 1 amine (or outer) side, 2 acyl side, 3 side chain; on linkers, the order of the positions; unused ones are H or OH. Bridge positions count the residues as written; N and C are the ends. Square brackets hold non-standard residues; d marks the D form. Peptide text beside a SMILES is read from it. I, II: the chains in the order shown. X1 = O=C(CCOCCOCCOCCOCCOCCOCCOCCOCCOCCOCCOCCOCCOCCOCCOCCOCCOCCOCCOCCOCCOCCOCCOCCOCCOCCOCCC(=O)[*:2])[*:1]; 2Nal = N[C@@H](Cc1ccc2ccccc2c1)C(=O)O; Diglycolyl = O=C(COCC(=O)[*:2])[*:1]; NMeR = CN[C@@H](CCCNC(=N)N)C(=O)O; Pen = CC(C)(S)[C@H](N)C(=O)O

Tests used:
[1] = Plasma Stability Assay; type: in vitro ADME; details: rat, Table 4-C, t1/2
Procedure: 0.5 mL of rat plasma (one tube per peptide, volume depends on how many time points are to be collected, 50 μL per time point) was added to each well of a 96-well polypropylene plate, and the tubes were incubated in a heated water bath, preset to 37° C. with gentle shaking. 1 μL of 10 mM peptide stock solution was added to each tub, and then 200 μL of Acetonitrile w/0.1% Formic Acid was added to each tube (1:4). Samples were collected at the following time points: 0, 10, 30, 45, 60, 120, 180 mins. When all time points were collected, the plate was centrifuged at 5000 rpm for 5 mins. LCM analysis was performed by pipetting 100 μL of each sample to appropriate well of a 96-well deep plate. 100 μL of an internal standard peptide (1 ug/mL) was added in Mobile Phase A to each well. The plate was vortexed and injected

[2] = Simulated Gastric Fluid (SGF) Assay; type: in vitro ADME; details: pig, simulated gastric fluid (SGF) with porcine pepsin, pH 2; Table 4-C, t1/2
Procedure: SGF was prepared by adding 20 mg NaCl, 32 mg porcine pepsin (MP Biochemicals, catalog 02102599), and 70 μl HCl to 10 ml water (final pH=2). Aliquots of SGF (0.5 ml each) were pre-warmed at 37° C. For each peptide tested, to start the reaction, 1 μl of peptide stock solution (10 mM in DMSO) was added to 0.5 ml SGF and thoroughly mixed such that the final peptide concentration was 20 μM. The reactions were incubated at 37° C. with gentle shaking. At each time point (0, 15, 30, 60 min), 50 μl aliquots were removed and added to 200 ul acetonitrile containing 0.1% formic acid to quench the reaction. Samples were stored at 4° C. until the end of the experiment and centrifuged at 10,000 rpm for 5 minutes. Aliquots of the supernatant were removed, diluted 1:1 into distilled water containing internal standard, and analyzed by LCMS/MS. Percent remaining at each timepoint was calculated based on the peak area response ratio of test compound to internal standard. Time 0 was set to 100%, and all later timepoints were calculated relative to time 0. Half-lives were calculated by fitting to a first-order exponential decay equation using GraphPad.

[3] = Simulated Intestinal Fluid (SIF) Stability Assay; type: in vitro ADME, porcine; details: pig, simulated intestinal fluid (SIF) with 1% porcine pancreatin, pH 6.5, Table 4-C, t1/2; > means assay stopped at that time; read-out: SIF (porcine) Min
Outline: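 Peptides (22 μM final) incubated at 37 °C in FASSIF (pH 6.5) with 1% porcine pancreatin; aliquots quenched at various times and analyzed by LC-MS/MS against internal standard. Half-life from first-order exponential decay fit of percent remaining.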

[4] = target: T1, rh integrin α4β7 (Homo sapiens, UniProt P13612+P26010); test: α4β7-MAdCAM Competition ELISA; type: binding; details: Table 4-B; read-out: ELISA α4β7 IC50
T1 construct: purchased R&D Systems 5397-A30
T1 sequence (P13612 34-977 limits assumed): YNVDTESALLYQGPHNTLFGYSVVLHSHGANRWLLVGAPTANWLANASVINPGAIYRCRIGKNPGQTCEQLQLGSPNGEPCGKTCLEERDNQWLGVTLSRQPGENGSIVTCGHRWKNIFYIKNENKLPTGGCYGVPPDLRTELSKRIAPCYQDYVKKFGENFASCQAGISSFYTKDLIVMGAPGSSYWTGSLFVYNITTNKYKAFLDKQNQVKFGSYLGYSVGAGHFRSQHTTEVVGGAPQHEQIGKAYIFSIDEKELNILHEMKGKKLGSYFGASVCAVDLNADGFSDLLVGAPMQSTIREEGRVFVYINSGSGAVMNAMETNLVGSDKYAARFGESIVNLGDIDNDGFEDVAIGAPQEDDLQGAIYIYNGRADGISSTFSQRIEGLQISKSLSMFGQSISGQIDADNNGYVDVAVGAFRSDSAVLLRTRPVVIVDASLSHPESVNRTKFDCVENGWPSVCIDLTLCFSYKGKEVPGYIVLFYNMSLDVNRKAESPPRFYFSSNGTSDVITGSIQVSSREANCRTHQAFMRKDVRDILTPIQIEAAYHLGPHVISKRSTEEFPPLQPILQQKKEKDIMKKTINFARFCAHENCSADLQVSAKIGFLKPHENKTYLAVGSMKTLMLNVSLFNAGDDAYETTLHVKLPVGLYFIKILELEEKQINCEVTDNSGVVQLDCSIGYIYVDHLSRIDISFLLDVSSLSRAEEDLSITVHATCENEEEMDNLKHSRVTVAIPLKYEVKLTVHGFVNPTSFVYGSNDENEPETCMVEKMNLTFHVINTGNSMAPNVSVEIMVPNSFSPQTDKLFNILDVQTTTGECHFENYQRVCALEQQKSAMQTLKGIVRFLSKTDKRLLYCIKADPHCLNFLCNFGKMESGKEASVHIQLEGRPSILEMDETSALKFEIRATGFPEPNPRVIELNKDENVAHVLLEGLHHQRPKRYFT
T1 sequence (P26010 20-723 limits assumed): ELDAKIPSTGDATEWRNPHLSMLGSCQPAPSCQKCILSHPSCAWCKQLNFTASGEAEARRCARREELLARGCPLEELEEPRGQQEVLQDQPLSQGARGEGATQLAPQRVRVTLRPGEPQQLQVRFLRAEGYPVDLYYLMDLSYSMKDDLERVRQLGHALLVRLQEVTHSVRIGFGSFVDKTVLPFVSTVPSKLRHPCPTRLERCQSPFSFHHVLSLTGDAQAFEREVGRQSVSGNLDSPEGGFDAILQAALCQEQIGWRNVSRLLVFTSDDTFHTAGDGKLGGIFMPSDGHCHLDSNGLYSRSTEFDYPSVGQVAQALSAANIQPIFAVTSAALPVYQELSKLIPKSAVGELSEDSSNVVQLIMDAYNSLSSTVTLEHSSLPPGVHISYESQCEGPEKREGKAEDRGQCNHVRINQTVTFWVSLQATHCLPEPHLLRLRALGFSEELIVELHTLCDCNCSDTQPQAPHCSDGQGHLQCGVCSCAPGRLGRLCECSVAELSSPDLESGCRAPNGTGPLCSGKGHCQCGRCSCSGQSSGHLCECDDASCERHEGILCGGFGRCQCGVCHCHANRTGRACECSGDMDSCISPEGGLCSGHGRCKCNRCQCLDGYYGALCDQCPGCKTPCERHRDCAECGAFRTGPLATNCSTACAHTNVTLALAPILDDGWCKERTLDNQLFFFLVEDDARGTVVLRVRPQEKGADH
Outline: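 Recombinant human α4β7 was captured on nickel plates at 800 ng/well. Peptide in 3-fold serial dilution (final top 10 μM) competed with MAdCAM-1 (final 10 nM) for 1 h at room temperature in 50 mM Tris pH 7.6, 150 mM NaCl, 1 mM MnCl2 or MgCl2. Bound MAdCAM-1 was detected with anti-human IgG1-HRP/TMB at A450.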

[5] = Dithiothreitol (DTT) Redox Stability Assay; type: physicochemical; details: Table 4-C, t1/2, 0.5 mM DTT
Procedure: For each peptide tested, the DTT stability assay was conducted by adding 5 μl of a 10 mM peptide stock solution in DMSO to 1 ml of 100 mM Tris-Cl, pH 7.5 (final peptide concentration is 50 μM). At time 0 min, 5 ul of a freshly thawed 100 mM DTT solution was added to the incubation tube containing the peptide, such that the final DTT concentration was 0.5 mM. The reactions were incubated at room temperature. At different time points up to 120 minutes (20 min, 40 min, 80 min, 120 min), 50 ul aliquots were removed, and the reaction was quenched by adding 10 μl of 5M acetic acid. To measure disappearance of the parent peptide, the quenched samples (30 μl) were analyzed by reverse phase HPLC and UV absorbance at 220 nm. The fraction oxidized remaining was graphed versus time, and half-lives were calculated by fitting to a first-order exponential decay equation using Excel.

[6] = target: T2, α4β1 (Homo sapiens, UniProt P05556+P13612, DEL729-798); test: α4β1-VCAM Competition ELISA; type: binding; details: Table 3-B, Selectivity (α4β1); range classes; read-out: α4β1 ELISA IC50
T2 construct: purchased R&D Systems 5668-A4
T2 sequence (P13612 34-977 limits assumed, stated change not applied): as the sequence (P13612 34-977 limits assumed) above
T2 sequence (P05556 21-728 limits assumed, stated change not applied): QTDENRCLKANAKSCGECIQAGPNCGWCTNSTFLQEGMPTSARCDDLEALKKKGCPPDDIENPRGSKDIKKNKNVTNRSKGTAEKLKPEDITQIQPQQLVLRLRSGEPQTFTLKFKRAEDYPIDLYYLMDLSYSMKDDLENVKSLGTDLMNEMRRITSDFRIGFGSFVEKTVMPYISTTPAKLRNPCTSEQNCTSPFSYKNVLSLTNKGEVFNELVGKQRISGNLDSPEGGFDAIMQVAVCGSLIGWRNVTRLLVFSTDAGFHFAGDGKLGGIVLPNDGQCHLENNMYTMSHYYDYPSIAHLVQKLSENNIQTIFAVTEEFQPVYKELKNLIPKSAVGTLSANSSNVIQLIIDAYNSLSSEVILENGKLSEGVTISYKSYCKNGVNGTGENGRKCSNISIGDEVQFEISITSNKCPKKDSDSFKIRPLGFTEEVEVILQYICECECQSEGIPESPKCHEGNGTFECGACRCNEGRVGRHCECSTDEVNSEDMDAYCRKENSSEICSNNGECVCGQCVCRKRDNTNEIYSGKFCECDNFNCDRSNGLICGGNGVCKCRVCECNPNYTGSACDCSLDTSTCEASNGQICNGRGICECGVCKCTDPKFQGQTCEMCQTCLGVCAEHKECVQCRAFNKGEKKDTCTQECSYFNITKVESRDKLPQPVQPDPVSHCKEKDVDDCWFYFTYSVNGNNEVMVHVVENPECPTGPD
Outline: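 Recombinant α4β1 (60 nM final) competed with serially diluted peptides (top final 100 μM) for VCAM-1 Fc coated at 400 ng/well, in Tris pH 7.6 with 1 mM MnCl2 or MgCl2, for 2 h at 37 °C. Bound integrin was detected with anti-CD49d 9F10 plus HRP anti-mouse IgG, using TMB read at 450 nm.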

[7] = target: α4β1 (Homo sapiens, UniProt P05556+P13612); test: α4β1-VCAM Cell Adhesion Assay (Jurkat E6.1 human cells); type: cell-based; set-up: host or cells: Jurkat E6.1 human T cells; details: Table 3-B, Selectivity (α4β1); range classes; read-out: α4β1 cell IC50
α4β1 (Homo sapiens, UniProt P05556+P13612), sequence (P13612 34-1032): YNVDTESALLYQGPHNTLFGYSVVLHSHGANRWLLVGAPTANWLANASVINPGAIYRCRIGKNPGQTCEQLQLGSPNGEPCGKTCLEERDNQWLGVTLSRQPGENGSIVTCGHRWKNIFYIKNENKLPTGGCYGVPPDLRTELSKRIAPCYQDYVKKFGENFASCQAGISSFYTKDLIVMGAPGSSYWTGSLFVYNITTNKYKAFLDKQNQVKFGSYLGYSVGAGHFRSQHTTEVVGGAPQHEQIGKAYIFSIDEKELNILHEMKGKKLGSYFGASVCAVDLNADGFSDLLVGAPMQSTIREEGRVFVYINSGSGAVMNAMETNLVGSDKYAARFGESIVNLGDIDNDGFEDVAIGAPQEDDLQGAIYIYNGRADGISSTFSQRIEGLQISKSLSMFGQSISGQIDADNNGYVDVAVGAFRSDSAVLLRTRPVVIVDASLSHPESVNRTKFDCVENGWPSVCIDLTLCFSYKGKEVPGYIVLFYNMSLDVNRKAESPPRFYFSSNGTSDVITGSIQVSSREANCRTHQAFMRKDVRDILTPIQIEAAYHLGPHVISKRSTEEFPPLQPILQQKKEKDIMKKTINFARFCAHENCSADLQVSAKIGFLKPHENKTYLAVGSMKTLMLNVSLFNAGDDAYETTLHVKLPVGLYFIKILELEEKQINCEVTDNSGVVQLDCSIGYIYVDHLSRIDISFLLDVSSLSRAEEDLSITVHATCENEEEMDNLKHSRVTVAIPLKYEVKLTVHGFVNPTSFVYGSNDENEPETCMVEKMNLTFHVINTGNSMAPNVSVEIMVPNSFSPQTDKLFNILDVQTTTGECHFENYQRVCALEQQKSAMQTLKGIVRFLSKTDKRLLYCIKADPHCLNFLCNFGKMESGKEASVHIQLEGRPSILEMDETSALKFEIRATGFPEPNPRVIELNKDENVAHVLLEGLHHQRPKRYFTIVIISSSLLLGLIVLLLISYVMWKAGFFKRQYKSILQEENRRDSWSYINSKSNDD
α4β1 (Homo sapiens, UniProt P05556+P13612), sequence (P05556 21-798): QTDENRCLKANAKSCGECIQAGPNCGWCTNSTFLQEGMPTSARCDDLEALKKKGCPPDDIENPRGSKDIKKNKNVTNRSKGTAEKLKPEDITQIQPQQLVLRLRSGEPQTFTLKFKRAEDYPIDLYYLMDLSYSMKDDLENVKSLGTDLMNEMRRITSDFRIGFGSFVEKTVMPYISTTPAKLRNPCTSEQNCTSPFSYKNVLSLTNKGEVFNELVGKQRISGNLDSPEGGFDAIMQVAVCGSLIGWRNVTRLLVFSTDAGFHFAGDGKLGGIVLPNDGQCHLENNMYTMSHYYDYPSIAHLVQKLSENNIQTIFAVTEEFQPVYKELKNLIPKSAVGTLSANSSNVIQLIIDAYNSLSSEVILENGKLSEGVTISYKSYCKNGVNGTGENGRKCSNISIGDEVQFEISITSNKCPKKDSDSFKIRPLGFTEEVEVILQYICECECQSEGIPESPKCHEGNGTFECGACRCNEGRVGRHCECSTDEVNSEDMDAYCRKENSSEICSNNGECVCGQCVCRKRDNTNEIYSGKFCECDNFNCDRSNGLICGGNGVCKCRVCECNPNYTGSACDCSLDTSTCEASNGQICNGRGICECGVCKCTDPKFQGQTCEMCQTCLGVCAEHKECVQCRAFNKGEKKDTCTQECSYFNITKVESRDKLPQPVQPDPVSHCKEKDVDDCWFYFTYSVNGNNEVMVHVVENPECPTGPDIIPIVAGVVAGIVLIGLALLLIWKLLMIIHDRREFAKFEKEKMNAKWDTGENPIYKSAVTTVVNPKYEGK
Procedure: Jurkat E6.1 human cells (Sigma #88042803) were cultured in RPMI 1640 HEPES medium (Invitrogen #22400-089) supplemented with 10% serum (Fetal Bovine Serum, Invitrogen #16140-071), 1 mM sodium pyruvate (Invitrogen #11360-070), 2 mM L-glutamine (Invitrogen #25030-081) and Penicillin-Streptomycin (Invitrogen #15140-122) at 100 units of penicillin and 100 μg of streptomycin per ml. The cells were washed two times in DMEM medium (ATCC #30-2002) supplemented with 0.1% BSA, 10 mM HEPES pH 7 and 1 mM MnCl2. The cells were re-suspended in supplemented DMEM medium at a density of 4×10^6 cells/ml.
A Nunc MaxiSorp plate was coated with rh VCAM-1/CD106 Fc chimera (R&D #862-VC) at 400 ng per well in 50 ul per well in 1×PBS and incubated at 4° C. overnight. The solution was then removed by shaking, blocked with 250 ul per well PBS containing 1% BSA, and incubated at 37° C. for 1 hr. The solution was removed by shaking. Peptides were diluted by serial dilution in a final volume of 50 ul per well (2× concentration). To each well, 50 ul of cells (200,000 cells) were added and the plate was incubated at 37° C., 5% CO2 for 30-45 min to allow cell adhesion. The wells were washed manually three times (100 ul per wash) with supplemented DMEM. After the final wash, 100 ul/well of supplemented DMEM and 10 ul/well of MTT reagent (ATTC cat#30-1010K) were added. The plate was incubated at 37° C., 5% CO2 for 2-3 hrs until a purple precipitate was visible. 100 ul of Detergent Reagent (ATTC cat#30-1010K) was added to each well. The plate was covered from the light, wrapped in Parafilm to prevent evaporation, and left overnight at room temperature in the dark. The plate was shaken for 5 min and the absorbance at 570 nm was measured. To calculate the dose response, the absorbance value of control wells not containing cells was subtracted from each test well.

[8] = target: α4β7 integrin (Homo sapiens, UniProt P13612+P26010, DEL724-798); test: Surface plasmon resonance (SPR), binding of soluble α4β7 integrin to immobilized biotin-labeled ligand
α4β7 integrin, sequence (P13612 34-977 limits assumed, stated change not applied): as the sequence (P13612 34-977 limits assumed) above
α4β7 integrin, sequence (P26010 20-723 limits assumed, stated change not applied): as the sequence (P26010 20-723 limits assumed) above
Description: Surface plasmon resonance (SPR) was used to further evaluate the binding properties of Peptide X. An analog of Peptide X (Peptide X-biotin), which contains a biotin group attached to Peptide X via a PEG linker, was synthesized. Another peptide dimer having the following structure, which is closely related to Peptide X, was also synthesized and biotin-labeled:
• (Peptide Z). Vedolizumab was also chemically biotinylated. Peptide X-biotin, Peptide Z-biotin, or biotin-labeled vedolizumab antibody was immobilized to a streptavidin coated SPR chip, and the binding of soluble α4β7 integrin was measured. […] This half-life is quite long, and may be caused by a tight association between the peptide and the bound Mn^2+ metal ion on the integrin. […] In addition, the KD for Peptide X-biotin was substantially lower than that for Peptide Z-biotin.

For CC(=O)N[C@H]1CSSC(C)(C)[C@@H](C(=O)N[C@H](CCCCNC(=O)CN(CC(=O)NCCCC[C@@H](NC(=O)[C@H]2NC(=O)[C@H](CC(C)C)NC(=O)[C@H]([C@@H](C)O)NC(=O)[C@H](CC(=O)O)NC(=O)[C@H](CO)NC(=O)[C@H](CCCNC(=N)N)N(C)C(=O)[C@@H](NC(C)=O)CSSC2(C)C)C(N)=O)C(=O)CCN)C(N)=O)NC(=O)[C@H](CC(C)C)NC(=O)[C@H]([C@@H](C)O)NC(=O)[C@H](CC(=O)O)NC(=O)[C@H](CO)NC(=O)[C@H](CCCNC(=N)N)N(C)C1=O [compound 203, (Ac-C-N-Me-R-S-D-T-L-Pen-k-NH2)2-IDA], which half-life at 20 μM [1] is on record?
Its half-life at 20 μM is over 6 h.

And the half-life at 20 μM [2]?
The half-life at 20 μM was over 6 h.

What about the half-life at 22 μM [3] of the same molecule?
The half-life at 22 μM was over 4.88 h.

Which results are given for CC(=O)N[C@H]1CSSC[C@@H](C(=O)N[C@@H](CCCCNC(=O)CCOCCOCCOCCOCCOCCOCCOCCOCCOCCOCCOCCOCCOCCOCCOCCOCCOCCOCCOCCOCCOCCOCCOCCOCCOCCOCCC(=O)NCCCC[C@H](NC(=O)[C@@H]2CSSC[C@H](NC(C)=O)C(=O)N(C)[C@@H](CCCNC(=N)N)C(=O)N[C@@H](CO)C(=O)N[C@@H](CC(=O)O)C(=O)N[C@@H]([C@@H](C)O)C(=O)N[C@@H](CC(C)C)C(=O)N2)C(=O)O)C(=O)O)NC(=O)[C@H](CC(C)C)NC(=O)[C@H]([C@@H](C)O)NC(=O)[C@H](CC(=O)O)NC(=O)[C@H](CO)NC(=O)[C@H](CCCNC(=N)N)N(C)C1=O [compound 200, (Ac-C-N-Me-R-S-D-T-L-C-K-OH)2-PEG25] (I: Ac-C[NMeR]SDTLCK-OH / II: Ac-C[NMeR]SDTLCK-OH; disulfide I:1-I:7, II:1-II:7 (inferred); linker I:8-II:8 via X1 (inferred))?
half-life at 20 μM [1]: 1.47 h; half-life at 20 μM [2]: > 6 h; half-life at 22 μM [3]: 0.133 h

With CC(=O)N[C@@H]1C(=O)N[C@@H](CCCNC(=N)N)C(=O)N[C@@H](CO)C(=O)N[C@@H](CC(=O)O)C(=O)N[C@@H]([C@@H](C)O)C(=O)N[C@@H](CC(C)C)C(=O)N[C@H](C(=O)N[C@H](CCCCN)C(N)=O)CSSC1(C)C [compound 206, Ac-Pen-R-S-D-T-L-C-k-NH2] (Ac-[Pen]RSDTLC[dK]-NH2; disulfide 1-7) as the molecule, how does the IC50 [4] read?
The IC50 was 97 nM.

And the “DTT Min” value [5]?
The value was 52 min.

What about the half-life at 22 μM [3] of the same molecule?
Its half-life at 22 μM is 0.433 h.

What does the source list for CC(=O)N[C@@H]1C(=O)N(C)[C@@H](CCCNC(=N)N)C(=O)N[C@@H](CO)C(=O)N[C@@H](CC(=O)O)C(=O)N[C@@H]([C@@H](C)O)C(=O)N[C@@H](CC(C)C)C(=O)N[C@H](C(=O)N[C@@H](Cc2ccc3ccccc3c2)C(=O)N[C@H](CCC(=O)O)C(=O)N[C@H](CCCCNC(=O)COCC(=O)NCCCC[C@@H](NC(=O)[C@@H](CCC(=O)O)NC(=O)[C@H](Cc2ccc3ccccc3c2)NC(=O)[C@H]2NC(=O)[C@H](CC(C)C)NC(=O)[C@H]([C@@H](C)O)NC(=O)[C@H](CC(=O)O)NC(=O)[C@H](CO)NC(=O)[C@H](CCCNC(=N)N)N(C)C(=O)[C@@H](NC(C)=O)C(C)(C)SSC2(C)C)C(N)=O)C(N)=O)C(C)(C)SSC1(C)C [compound 33] (I: Ac-[Pen][NMeR]SDTL[Pen][2Nal][dE][dK]-NH2 / II: Ac-[Pen][NMeR]SDTL[Pen][2Nal][dE][dK]-NH2; disulfide I:1-I:7, II:1-II:7; linker I:10-II:10 via Diglycolyl)?
IC50 [6]: 100 to 500 nM; IC50 [7]: > 100000 nM

With CC(=O)N[C@@H]1C(=O)N(C)[C@@H](CCCNC(=N)N)C(=O)N[C@@H](CO)C(=O)N[C@@H](CC(=O)O)C(=O)N[C@@H]([C@@H](C)O)C(=O)N[C@@H](CC(C)C)C(=O)N[C@H](C(=O)N[C@@H](Cc2ccc(C(C)(C)C)cc2)C(=O)N[C@@H](CCC(=O)O)CC(=O)N[C@H](CCCCNC(=O)CN(CC(=O)NCCCC[C@@H](NC(=O)C[C@H](CCC(=O)O)NC(=O)[C@H](Cc2ccc(C(C)(C)C)cc2)NC(=O)[C@H]2NC(=O)[C@H](CC(C)C)NC(=O)[C@H]([C@@H](C)O)NC(=O)[C@H](CC(=O)O)NC(=O)[C@H](CO)NC(=O)[C@H](CCCNC(=N)N)N(C)C(=O)[C@@H](NC(C)=O)C(C)(C)SSC2(C)C)C(N)=O)C(=O)CCNC(=O)CCOCCOCCOCCOCCNC(=O)CCCC[C@@H]2SC[C@@H]3NC(=O)N[C@@H]32)C(N)=O)C(C)(C)SSC1(C)C [Peptide X-biotin] as the molecule, how does the “KD lower than that for biotin-labeled vedolizumab” value [8] read?
The value was 3.8 fold.

What about the “kd” value [8] of the same molecule?
The value was 0.0000173 s⁻¹.

And the kon ([8]; read-out: ka)?
Its kon is 1120 M⁻¹ s⁻¹.
